Experimental data reported in patent US9422333B2, “HCV protease inhibitors and uses thereof” (Celgene Avilomics Research, Inc., priority 2008, dated 2016).

Target: HCV NS3/4A wild type (wt) (Hepatitis C virus genotype 1b (isolate BK) (HCV), UniProt P26663)
Assay: Mass spectrometric analysis (MALDI-TOF) of intact protease incubated with test compound
Format: binding
Settings: 10-fold excess of compound
Method: Mass spectrometric analysis of HCV wild type or HCV variant C159S in the presence of test compound is performed. 100 pmols of HCV wild type (Bioenza CA) is incubated with test compound for 1 hr and 3 hrs at 10-fold access of test compound to protein. 1 ul aliquots of the samples (total volume of 4.24 ul) are diluted with 10 ul of 0.1% TFA prior to micro C4 ZipTipping directly onto the MALDI target using Sinapinic acid as the desorption matrix (10 mg/mL in 0.1% TFA:Acetonitrile 50:50). Analyses are performed on a Shimadzu Biotech Axima TOF^2 (Shimadzu Instruments) matrix-assisted-laser desorption/ionization Time-of-Flight (MALDI-TOF) mass spectrometer. The same procedure is carried out on 100 pmols of HCV C159S mutant of HCV protease for 3 hrs at 10-fold excess of test compound to protein.
(§1) 2 ul aliquots of the samples were diluted with 10 ul of 0.1% TFA prior to micro C4 ZipTipping directly onto the MALDI target using Sinapinic acid as the desorption matrix (10 mg/ml in 0.1% TFA:Acetonitrile 50:50). For intact protein mass measurement the instrument was set in linear mode using a pulsed extraction setting of 24,500 and apomyoglobin as the standard to calibrate the instrument.
as §1, with “[…]” for “C4”, “20:80).” for “50:50).”

Structure (SMILES)	covalent modification of protein (reaction with compound, mass spectrometry) (1 hr incubation)	covalent modification of protein (reaction with compound, mass spectrometry) (3 hr incubation)	mass increase of new protein species versus protein with no compound (3 hr incubation)
CCC[C@H](NC(=O)[C@@H]1[C@H]2CCC[C@H]2CN1C(=O)[C@@H](NC(=O)[C@@H](NC(=O)c1cnccn1)C1CCCCC1)C(C)(C)C)C(=O)C(=O)NC1CC1 [telaprevir, reference compound]	no reaction	–	–
C=CC(=O)NC[C@H](NC(=O)[C@@H](NC(=O)c1cnccn1)C1CCCCC1)C(=O)N1C[C@@H]2CCC[C@@H]2[C@H]1C(=O)N[C@@H](CCC)C(=O)C(=O)NC1CC1 [Compound I-11, (1S,3aR,6aS)-2-((S)-3-acrylamido-2-((S)-2-cyclohexyl-2-(pyrazine-2-carboxamido)acetamido)propanoyl)-N—((S)-1-(cyclopropylamino)-1,2-dioxohexan-3-yl)octahydrocyclopenta[c]pyrrole-1-carboxamide]	–	reacted significantly to produce a new species	approximately 703 Da
